Here are results for 30 compounds from US20250186391A1, “ORAL COMPLEMENT FACTOR D INHIBITORS” (BioCryst Pharmaceuticals, Inc., priority 2019, published 2025).

As a reminder, the IC50 is the concentration that inhibits the measured activity by half.

Molecules are shown by their SMILES. Where only a bound is given, the exact number is not on record here.

Factor D, sequence (P00746 26-253): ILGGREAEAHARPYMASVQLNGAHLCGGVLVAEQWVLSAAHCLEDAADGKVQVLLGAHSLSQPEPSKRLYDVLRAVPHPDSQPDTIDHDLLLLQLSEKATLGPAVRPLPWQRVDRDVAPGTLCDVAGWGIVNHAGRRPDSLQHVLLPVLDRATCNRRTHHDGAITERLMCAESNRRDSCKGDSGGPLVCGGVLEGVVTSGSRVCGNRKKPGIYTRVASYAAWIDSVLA

The target in this experiment is Factor D (Homo sapiens (Human), UniProt P00746). Briefly: Factor D esterolytic assay. The experiment is classed as biochemical. The conditions noted are these: Z-Lys-SBzl substrate, 100 mM HEPES, 500 mM NaCl, pH 7.5, 10% DMSO; tested a minimum of three times; read-out: Measured Ki (IC50) Value for Compounds: IC50. As for the experimental part:
The IC50 value of a compound (i.e., the concentration of the compound that inhibits 50% of the enzymatic activity) was calculated according to the procedure reported in U.S. Pat. No. 6,653,340 B1, e.g., column 74 (incorporated by reference).
Specifically, the compounds were dissolved in a stock solution of DMSO at 10.0 or 100 mM. A portion of this stock solution was added to assay buffer in a final volume of 50 μL. Controls included buffer alone and enzyme solutions to which DMSO was added. Substrate was added to the reaction wells immediately or after incubation at room temperature. The reaction rates were measured spectrophotometrically by the generation of product at 405 nm for 600 sec. Background absorbance at 690 nm was measured and subtracted from the absorbance at 405 nm for each well.
The reaction rate for enzyme alone was compared to the rate of enzyme in the presence of inhibitor and the percent inhibition was calculated as shown below: […]
An established esterolytic assay for the measurement of Factor D activity and inhibition of Factor D activity was used (Kam, C. M.; McRae, B. J.; Harper, J. W.; Niemann, M. A.; Volanakis, J. E.; Powers, J. C. Human complement proteins D, C2, and B Active site mapping with peptide thioester substrates. J Biol. Chem. 1987, 262, 3444-3451). For this assay Z-Lys-SBzl, 1.29 mM (Kim, S.; Narayana, S. V. L; Volanakis, J. E. Mutational analysis of the substrate binding site of human complement Factor D. Biochemistry. 1994, 33, 14393-14399.) was used as the substrate for Factor D ([…]). Hydrolysis of this compound by Factor D liberated a free sulfhydryl group which is then reacted with 5,5′-dithiobis(2nitrobenzoic acid) producing an intense yellow color (Habeeb, A. F. S. A. Reaction of protein sulfhydryl groups with Ellman's Reagent. Methods in Enzymol. 1976, 25, 457-464.). The assays were performed in 96 well microtiter plates and rates of hydrolysis were monitored at 405 nm on a Biotek Synergy H1 plate reader. Hydrolysis rates were reported as change in mOD/min. The assay was conducted in 100 mM HEPES, 500 mM NaCl, pH 7.5 containing 10% DMSO in a final volume of 50 μL per well.
An IC50, a compound concentration which inhibits 50% of the enzymatic activity, was calculated. Compounds in the examples were tested a minimum of three times.
Regarding `COc1c(-c2ccc3c(c2)c(COc2ccccc2CC(=O)O)nn3C2CCC2)ccnc1CN` [Compound 328d, 2-(2-((5-(2-(aminomethyl)-3-methoxypyridin-4-yl)-1-cyclobutyl-1H-indazol-3-yl)methoxy)phenyl)acetic acid], the IC50 was > 10 µM. In the case of `COc1ccc(CC(=O)O)c(OCc2c3cc(-c4cccc(CN)c4)ccc3nn2C)c1` [Compound 210c, 2-(2-((5-(3-(aminomethyl)phenyl)-2-methyl-2H-indazol-3-yl)methoxy)-4-methoxyphenyl)acetic acid], the IC50 is < 1 µM. Next, `NCc1cccc(-c2cc(C(=O)O)cc3cc(COc4ccccc4CC(=O)O)oc23)c1` [Compound 37b, 7-(3-(aminomethyl)phenyl)-2-((2-(carboxymethyl)phenoxy)methyl)benzofuran-5-carboxylic acid]: 1 to 10 µM.

Regarding `NCc1cccc(-c2ccc3c(c2)c(COc2ccccc2CC(=O)O)nn3-c2ccncc2)c1` [Compound 265c, 2-(2-((5-(3-(aminomethyl)phenyl)-1-(pyridin-4-yl)-1H-indazol-3-yl)methoxy)phenyl)acetic acid], the IC50 is < 1 µM. To `NCc1cccc(-c2ccc3ncc(COc4ccccc4CC(=O)O)n3c2)c1` [Compound 65e, 2-(2-((6-(3-(aminomethyl)phenyl)imidazo[1,2-a]pyridin-3-yl)methoxy)phenyl)acetic acid] belongs < 1 µM. On to `Cc1cc(-c2cccc(CN)c2)cc2c(COc3ccccc3CC(=O)O)coc12` [Compound 17e, 2-(2-((5-(3-(aminomethyl)phenyl)-7-methylbenzofuran-3-yl)methoxy)phenyl)acetic acid], for which the IC50 is < 1 µM. With `COc1c(-c2ccc3c(c2)c(COc2ccccc2CC(=O)O)nn3C(C)C)ccnc1CN` [Compound 326d, 2-(2-((5-(2-(aminomethyl)-3-methoxypyridin-4-yl)-1-isopropyl-1H-indazol-3-yl)methoxy)phenyl)acetic acid], the IC50 lay in the range of 1 to 10 µM. To `NCc1cccc(-c2cc(CNCC(F)(F)F)c3occ(COc4ccccc4CC(=O)O)c3c2)c1` [Compound 179b, 2-(2-((5-(3-(aminomethyl)phenyl)-7-(((2,2,2-trifluoroethyl)amino)methyl)benzofuran-3-yl)methoxy)phenyl)acetic acid] belongs < 1 µM; to `COc1ccc(CC(=O)O)c(OCc2coc3ccc(-c4ccnc(CN)c4F)cc23)c1` [Compound 71d, 2-(2-((5-(2-(aminomethyl)-3-fluoropyridin-4-yl)benzofuran-3-yl)methoxy)-4-methoxyphenyl)acetic acid], < 1 µM. To `NCc1cccc(-c2ccc3oc(C(F)F)c(COc4ccccc4CC(=O)O)c3c2)c1` [Compound 139c, 2-(2-((5-(3-(aminomethyl)phenyl)-2-(difluoromethyl)benzofuran-3-yl)methoxy)phenyl)acetic acid] belongs < 1 µM; to `CC(C)n1nc(COc2ccccc2CC(=O)O)c2cc(-c3cccc([C@@H](C)N)c3)ccc21` [Compound 323b, (R)-2-(2-((5-(3-(1-aminoethyl)phenyl)-1-isopropyl-1H-indazol-3-yl)methoxy)phenyl)acetic acid], < 1 µM. Next, `NCc1cccc(-c2cc(N)c3oc(C(=O)O)c(COc4ccccc4CC(=O)O)c3c2)c1` [Compound 87c, 7-amino-5-(3-(aminomethyl)phenyl)-3-((2-(carboxymethyl)phenoxy)methyl)benzofuran-2-carboxylic acid]: < 1 µM; `NCc1cccc(-c2cc(Cl)c3occ(COc4ccccc4CC(=O)O)c3c2)c1` [Compound 127f, 2-(2-((5-(3-(aminomethyl)phenyl)-7-chlorobenzofuran-3-yl)methoxy)phenyl)acetic acid]: < 1 µM; `CC(C)n1nc(COc2ccccc2CC(=O)O)c2cc(-c3ccnc(CN)c3F)ccc21` [Compound 271c, 2-(2-((5-(2-(aminomethyl)-3-fluoropyridin-4-yl)-1-isopropyl-1H-indazol-3-yl)methoxy)phenyl)acetic acid]: < 1 µM. `NCc1cccc(-c2cc(F)cc3cc(COc4ccccc4CC(=O)O)oc23)c1` [Compound 31f, 2-(2-((7-(3-(aminomethyl)phenyl)-5-fluorobenzofuran-2-yl)methoxy)phenyl)acetic acid]: the IC50 is < 1 µM. To `NCc1cccc(-c2cc(N)c3oc(COc4ccccc4CC(=O)O)cc3c2)c1` [Compound 235g, 2-(2-((7-amino-5-(3-(aminomethyl)phenyl)benzofuran-2-yl)methoxy)phenyl)acetic acid] belongs > 10 µM; to `COc1ccc(CC(=O)O)c(OCc2c(C)oc3ccc(-c4cccc(CN)c4O)cc23)c1` [Compound 244d, 2-(2-((5-(3-(aminomethyl)-2-hydroxyphenyl)-2-methylbenzofuran-3-yl)methoxy)-4-methoxyphenyl)acetic acid], < 1 µM; to `NCc1cccc(-c2cc(C(=O)NCC3CC3)cc3cc(COc4ccccc4CC(=O)O)oc23)c1` [Compound 32d, 2-(2-((7-(3-(aminomethyl)phenyl)-5-((cyclopropylmethyl)carbamoyl)benzofuran-2-yl)methoxy)phenyl)acetic acid], < 1 µM. Next, `NCc1cccc(-c2ccc3oc(C(N)=O)c(COc4ccccc4CC(=O)O)c3c2)c1` [Compound 103c, 2-(2-((5-(3-(aminomethyl)phenyl)-2-carbamoylbenzofuran-3-yl)methoxy)phenyl)acetic acid]: < 1 µM; `CC(=O)c1oc2ccc(-c3cccc(CN)c3)cc2c1COc1ccccc1CC(=O)O` [Compound 141c, 2-(2-((2-acetyl-5-(3-(aminomethyl)phenyl)benzofuran-3-yl)methoxy)phenyl)acetic acid]: < 1 µM. Next, `N#Cc1cccc(CC(=O)O)c1OCc1coc2ccc(-c3cccc(CN)c3)cc12` [Compound 115c, 2-(2-((5-(3-(aminomethyl)phenyl)benzofuran-3-yl)methoxy)-3-cyanophenyl)acetic acid]: < 1 µM; `COCCc1oc2ccc(-c3cccc(CN)c3)cc2c1COc1ccccc1CC(=O)O` [Compound 175h, 2-(2-((5-(3-(aminomethyl)phenyl)-2-(2-methoxyethyl)benzofuran-3-yl)methoxy)phenyl)acetic acid]: < 1 µM. For `CCc1ccc(CC(=O)O)c(OCc2coc3ccc(-c4cccc(CN)c4)cc23)c1` [Compound 49b, 2-(2-((5-(3-(aminomethyl)phenyl)benzofuran-3-yl)methoxy)-4-ethylphenyl)acetic acid], the IC50 was < 1 µM.

Take `COc1cccc(OCc2coc3ccc(-c4cccc(CN)c4)cc23)c1CC(=O)O` [Compound 109d, 2-(2-((5-(3-(aminomethyl)phenyl)benzofuran-3-yl)methoxy)-6-methoxyphenyl)acetic acid]: the IC50 lay within 1 to 10 µM.

Consider `CCOC(=O)Cc1ccc(OC)cc1OCc1nn(C)c2ccc(-c3ccnc(CN)c3)cc12` [Compound 315b, ethyl 2-(2-((5-(2-(aminomethyl)pyridin-4-yl)-1-methyl-1H-indazol-3-yl)methoxy)-4-methoxyphenyl)acetate], for which the IC50 is < 1 µM. To `NCc1cccc(-c2cc(OCc3ccccn3)c3occ(COc4ccccc4CC(=O)O)c3c2)c1` [Compound 195f, 2-(2-((5-(3-(aminomethyl)phenyl)-7-(pyridin-2-ylmethoxy)benzofuran-3-yl)methoxy)phenyl)acetic acid] belongs < 1 µM; to `COc1cc(-c2cccc(CN)c2)cc2c(COc3c(C)cccc3CC(=O)O)coc12` [Compound 237c, 2-(2-((5-(3-(aminomethyl)phenyl)-7-methoxybenzofuran-3-yl)methoxy)-3-methylphenyl)acetic acid], < 1 µM.

For `COc1ccc(CC(=O)O)c(OCc2coc3ccc(-c4cccc(CN)c4)cc23)c1` [Compound 48b, 2-(2-((5-(3-(aminomethyl)phenyl)benzofuran-3-yl)methoxy)-4-methoxyphenyl)acetic acid], the IC50 is < 1 µM.

Turning to `Cc1oc2ccc(-c3cccc(CN)c3)cc2c1COc1cc(F)ccc1CC(=O)O` [Compound 200c, 2-(2-((5-(3-(aminomethyl)phenyl)-2-methylbenzofuran-3-yl)methoxy)-4-fluorophenyl)acetic acid], the IC50 was < 1 µM. To `NCc1cccc(-c2cc(-c3cccc(CN)c3)c3occ(COc4ccccc4CC(=O)O)c3c2)c1` [Compound 189c, 2-(2-((5,7-bis(3-(aminomethyl)phenyl)benzofuran-3-yl)methoxy)phenyl)acetic acid] belongs < 1 µM.
